# Laboratory results from article PMC8459971, “Evaluation of the hepatotoxicity of the novel GPR40 (FFAR1) agonist CPL207280 in the rat and monkey” (PLoS ONE, 2021).
# Several values for one entry are separate records, joined by “and”; a condition that tells them apart may be missing. Equal entries are not always repeated.
# Legend:
# [1] = target: T1, MRP4 (Homo sapiens, UniProt O15439); assay: Vesicular transport inhibition assay, MRP4; conditions: for Accumulation (counts per minute; CPM) with AMP / Accumulation (counts per minute; CPM) with ATP: MRP4;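 also: membrane vesicles with MRP4 incubated with compound and probe substrate plus 4 mM ATP, or AMP as passive-diffusion background, vesicular substrate uptake read by liquid scintillation counting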;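 as to Accumulation (counts per minute; CPM) with AMP: ATP 4 mM vs AMP background separates transporter uptake from diffusion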;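 as to Accumulation (counts per minute; CPM) with ATP: ATP 4 mM vs AMP background separates transporter uptake from diffusion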
# T1 sequence (O15439 1-1325): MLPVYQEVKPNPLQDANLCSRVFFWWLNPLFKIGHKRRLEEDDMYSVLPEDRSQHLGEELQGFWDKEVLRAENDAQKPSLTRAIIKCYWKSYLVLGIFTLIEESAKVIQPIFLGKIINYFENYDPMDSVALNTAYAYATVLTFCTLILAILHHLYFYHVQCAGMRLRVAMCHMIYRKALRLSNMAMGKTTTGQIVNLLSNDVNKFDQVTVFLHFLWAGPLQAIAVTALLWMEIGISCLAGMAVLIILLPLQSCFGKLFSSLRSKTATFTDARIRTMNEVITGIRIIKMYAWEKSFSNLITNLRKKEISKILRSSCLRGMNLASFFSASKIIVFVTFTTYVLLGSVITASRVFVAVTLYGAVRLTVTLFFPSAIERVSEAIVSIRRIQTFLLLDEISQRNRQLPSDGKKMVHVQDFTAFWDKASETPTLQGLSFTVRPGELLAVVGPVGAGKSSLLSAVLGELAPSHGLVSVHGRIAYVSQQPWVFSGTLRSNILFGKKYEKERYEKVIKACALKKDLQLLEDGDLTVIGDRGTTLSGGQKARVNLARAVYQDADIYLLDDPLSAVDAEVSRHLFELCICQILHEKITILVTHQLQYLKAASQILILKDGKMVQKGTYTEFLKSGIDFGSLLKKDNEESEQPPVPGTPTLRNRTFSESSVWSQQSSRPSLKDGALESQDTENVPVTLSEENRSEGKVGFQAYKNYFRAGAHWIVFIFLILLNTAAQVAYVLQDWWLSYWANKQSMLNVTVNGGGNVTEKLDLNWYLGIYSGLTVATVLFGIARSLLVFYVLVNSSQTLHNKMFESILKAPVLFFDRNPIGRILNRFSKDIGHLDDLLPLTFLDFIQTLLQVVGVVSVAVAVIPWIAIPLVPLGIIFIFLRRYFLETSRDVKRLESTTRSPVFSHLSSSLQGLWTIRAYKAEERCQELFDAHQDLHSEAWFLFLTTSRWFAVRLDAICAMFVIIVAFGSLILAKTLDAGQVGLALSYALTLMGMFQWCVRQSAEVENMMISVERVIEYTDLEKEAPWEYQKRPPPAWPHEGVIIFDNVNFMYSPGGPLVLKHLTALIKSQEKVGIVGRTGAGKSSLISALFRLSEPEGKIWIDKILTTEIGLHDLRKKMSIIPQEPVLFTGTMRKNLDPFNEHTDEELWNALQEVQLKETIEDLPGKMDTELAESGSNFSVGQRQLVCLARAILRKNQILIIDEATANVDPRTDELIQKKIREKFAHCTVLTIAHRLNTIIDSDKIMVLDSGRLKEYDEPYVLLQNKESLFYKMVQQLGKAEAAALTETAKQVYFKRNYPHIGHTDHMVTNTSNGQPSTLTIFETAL
# Procedure: (§1) In the vesicular transport inhibition assay (for BSEP, MRP) compounds were incubated with membrane vesicle preparations and the probe substrate. Incubations were carried out in the presence of 4 mM ATP or AMP to distinguish between transporter-mediated uptake and passive diffusion into the vesicles. For MRP2 and MRP3, reactions were carried out in the presence of 2 mM glutathione. Compounds were added to the reaction mixture in 0.75 μL of solvent (1% of the final incubation volume). […] Reactions were initiated by the addition of 25 μL of 12 mM MgATP (or 12 mM AMP in assay buffer as a background control) and preincubated separately. Reactions were quenched by the addition of 200 μL of ice-cold washing buffer and immediate filtration via glass fiber filters mounted on a 96-well plate (filter plate). The filters were washed (5 × 200 μL of ice-cold washing buffer), dried, and the amount of substrate inside the filtered vesicles was determined by liquid scintillation counting.
# [2] = target: MRP2 (Homo sapiens, UniProt Q92887); assay: Vesicular transport inhibition assay, MRP2; conditions: for Accumulation (counts per minute; CPM) with AMP / Accumulation (counts per minute; CPM) with ATP: MRP2;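 also: membrane vesicles with probe substrate plus 2 mM glutathione, incubated with 4 mM ATP or AMP (AMP as background control), vesicle-retained substrate measured by liquid scintillation counting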;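 as to Accumulation (counts per minute; CPM) with AMP: ATP 4 mM vs AMP background separates transporter uptake from diffusion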;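 as to Accumulation (counts per minute; CPM) with ATP: ATP 4 mM vs AMP background separates transporter uptake from diffusion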
# Sequence of MRP2 (Q92887 whole entry, the tested form may be a part): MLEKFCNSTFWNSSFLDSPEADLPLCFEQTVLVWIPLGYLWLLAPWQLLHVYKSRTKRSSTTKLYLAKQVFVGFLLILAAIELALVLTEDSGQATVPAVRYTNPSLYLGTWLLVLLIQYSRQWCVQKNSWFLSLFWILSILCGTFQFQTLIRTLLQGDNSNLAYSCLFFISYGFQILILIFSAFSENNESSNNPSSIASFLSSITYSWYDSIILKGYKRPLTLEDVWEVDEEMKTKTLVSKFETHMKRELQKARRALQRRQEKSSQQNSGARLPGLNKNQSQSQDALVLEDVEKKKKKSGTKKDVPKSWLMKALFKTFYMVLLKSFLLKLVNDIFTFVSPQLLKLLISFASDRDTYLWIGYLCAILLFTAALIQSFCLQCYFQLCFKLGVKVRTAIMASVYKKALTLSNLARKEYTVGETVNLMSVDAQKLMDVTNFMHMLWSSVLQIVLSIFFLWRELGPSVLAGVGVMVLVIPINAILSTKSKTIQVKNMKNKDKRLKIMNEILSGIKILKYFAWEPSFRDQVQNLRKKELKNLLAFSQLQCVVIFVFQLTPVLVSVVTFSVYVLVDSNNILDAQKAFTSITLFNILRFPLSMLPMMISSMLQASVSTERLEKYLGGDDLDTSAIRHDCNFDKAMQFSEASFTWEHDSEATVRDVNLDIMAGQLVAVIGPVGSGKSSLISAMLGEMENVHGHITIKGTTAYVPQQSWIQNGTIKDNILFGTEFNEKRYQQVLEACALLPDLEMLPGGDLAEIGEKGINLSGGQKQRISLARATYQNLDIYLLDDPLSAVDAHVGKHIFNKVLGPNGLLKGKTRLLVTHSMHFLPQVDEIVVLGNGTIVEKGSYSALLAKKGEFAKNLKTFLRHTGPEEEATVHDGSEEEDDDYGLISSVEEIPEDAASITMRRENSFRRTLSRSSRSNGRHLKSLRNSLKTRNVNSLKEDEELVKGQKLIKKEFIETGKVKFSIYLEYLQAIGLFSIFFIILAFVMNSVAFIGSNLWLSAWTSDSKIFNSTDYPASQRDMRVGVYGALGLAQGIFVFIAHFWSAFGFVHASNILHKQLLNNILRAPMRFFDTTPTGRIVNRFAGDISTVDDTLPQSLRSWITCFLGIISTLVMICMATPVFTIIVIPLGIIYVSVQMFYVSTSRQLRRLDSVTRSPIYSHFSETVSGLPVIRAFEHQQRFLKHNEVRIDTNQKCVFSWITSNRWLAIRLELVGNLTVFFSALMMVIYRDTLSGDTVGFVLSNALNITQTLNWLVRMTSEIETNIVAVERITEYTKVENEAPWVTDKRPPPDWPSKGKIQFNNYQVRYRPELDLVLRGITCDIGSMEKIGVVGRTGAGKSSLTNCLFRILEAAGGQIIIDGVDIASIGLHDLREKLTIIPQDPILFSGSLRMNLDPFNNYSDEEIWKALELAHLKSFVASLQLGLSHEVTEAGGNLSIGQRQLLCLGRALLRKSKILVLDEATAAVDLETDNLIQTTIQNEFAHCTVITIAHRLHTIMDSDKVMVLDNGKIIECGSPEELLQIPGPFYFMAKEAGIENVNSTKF
# Procedure: as §1
# [3] = Stability in microsomes, mini pig; type: in vitro ADME; conditions: for average DEG [%]: minipig microsomes, with cofactors
# Procedure: The final incubation volume was 500 μL. Two control compounds (verapamil and donepezil) were included for each microsomal species, along with the appropriate vehicle control. The reactions were terminated by transferring 50 μL of incubate to 100 μL methanol containing an internal standard (metoprolol) at appropriate time points (0, 10, 20, 40, 60, and 120 min for the test compound and 0, 5, 10, 20, 40, and 60 min for the control compounds). The termination plates were centrifuged at 4000 x g at 4°C for 30 min to precipitate the protein. The supernatants were then collected for analysis, and LC-MS/MS was used for detection purposes. The system consisted of an Acquity™ Binary Solvent Manager, Acquity™ 4-position heated column manager, 2777 Ultra High Pressure Autosampler, and a Xevo-TQ MS triple quadrupole mass spectrometer (Waters Ltd., Herts, UK). This process was carried out twice.
# [4] = Mini pig microsomes, mean n = 2
smiles,measurement,setting,value
CC#C[C@@H](CC(=O)O)c1ccc(OCC(C)=C(C)C)cc1 [CPL207280],IC50,[1],131 µM
same,"fold less inhibitory potency than TAK-875, MRP4",[1],at least 10 fold
same,Accumulation (counts per minute; CPM) with AMP,[1]; conc 0.10 µM,1154 CPM and 1110 CPM
same,Accumulation (counts per minute; CPM) with ATP,[1]; conc 0.10 µM,5335 CPM and 5537 CPM
same,Accumulation (counts per minute; CPM) with AMP,[1]; conc 1.00 µM,1207 CPM and 1074 CPM
same,Accumulation (counts per minute; CPM) with ATP,[1]; conc 1.00 µM,5159 CPM and 5701 CPM
same,Accumulation (counts per minute; CPM) with AMP,[1]; conc 3.00 µM,1157 CPM and 1113 CPM
same,Accumulation (counts per minute; CPM) with ATP,[1]; conc 3.00 µM,5157 CPM and 5321 CPM
same,Accumulation (counts per minute; CPM) with AMP,[1]; conc 10.00 µM,1132 CPM and 1046 CPM
same,Accumulation (counts per minute; CPM) with ATP,[1]; conc 10.00 µM,4884 CPM and 5225 CPM
same,Accumulation (counts per minute; CPM) with AMP,[1]; conc 30.00 µM,1054 CPM and 1003 CPM
same,Accumulation (counts per minute; CPM) with ATP,[1]; conc 30.00 µM,4460 CPM and 4110 CPM
same,Accumulation (counts per minute; CPM) with AMP,[1]; conc 100.00 µM,1090 CPM and 1013 CPM
same,Accumulation (counts per minute; CPM) with ATP,[1]; conc 100.00 µM,3600 CPM and 3817 CPM
same,Accumulation (counts per minute; CPM) with AMP,[1]; conc 300.00 µM,1018 CPM and 920 CPM
same,Accumulation (counts per minute; CPM) with ATP,[1]; conc 300.00 µM,2078 CPM and 2196 CPM
same,Accumulation (counts per minute; CPM) with AMP,[2]; conc 0.10 µM,198 CPM and 164 CPM
same,Accumulation (counts per minute; CPM) with ATP,[2]; conc 0.10 µM,2936 CPM and 2989 CPM
same,Accumulation (counts per minute; CPM) with AMP,[2]; conc 1.00 µM,160 CPM and 140 CPM
same,Accumulation (counts per minute; CPM) with ATP,[2]; conc 1.00 µM,2976 CPM and 3333 CPM
same,Accumulation (counts per minute; CPM) with AMP,[2]; conc 3.00 µM,225 CPM and 205 CPM
same,Accumulation (counts per minute; CPM) with ATP,[2]; conc 3.00 µM,3200 CPM and 3253 CPM
same,Accumulation (counts per minute; CPM) with AMP,[2]; conc 10.00 µM,218 CPM and 206 CPM
same,Accumulation (counts per minute; CPM) with ATP,[2]; conc 10.00 µM,3353 CPM and 3206 CPM
same,Accumulation (counts per minute; CPM) with AMP,[2]; conc 30.00 µM,203 CPM and 192 CPM
same,Accumulation (counts per minute; CPM) with ATP,[2]; conc 30.00 µM,3191 CPM and 3541 CPM
same,Accumulation (counts per minute; CPM) with AMP,[2]; conc 100.00 µM,195 CPM and 185 CPM
same,Accumulation (counts per minute; CPM) with ATP,[2]; conc 100.00 µM,3680 CPM and 3660 CPM
same,Accumulation (counts per minute; CPM) with AMP,[2]; conc 300.00 µM,129 CPM and 125 CPM
same,Accumulation (counts per minute; CPM) with ATP,[2]; conc 300.00 µM,3852 CPM and 4100 CPM
same,MRP2 Estimated IC50 (95% CI of IC50),"[2]; vesicles, up to 300μM, n = 2",no affinity
same,half-life at 3 μM,[3]; [4],31 min
same,microsomal CLint at 3 μM,[3]; [4],45 µL/min/mg
same,average DEG [%],[3]; 0 min,100.0%
same,average DEG [%],[3]; 20 min,67.0%
same,average DEG [%],[3]; 40 min,40.9%
same,average DEG [%],[3]; 60 min,26.3%
